Tests used:
OPM2 cells = assay: Cell proliferation assay (ViaLight, cellular ATP); type: cell-based; settings: Homo sapiens, OPM-2, 120 h, 5 days, 5 μM to 1 nM
Procedure, shortened: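 1×10^3 cells per well exposed to compounds at final 5 μM to 1 nM for 5 days. Viability read as cellular ATP by ViaLight luminescence, technical triplicates. GI50 computed from the dose–response.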

PI3K = target: T1, PI3K; assay: PI3K enzyme activity assay (luminescence, ATP consumption, Kinase-Glo); type: biochemical; settings: 10 μM ATP, 180 μM phosphatidyl inositol, 60 min
T1 construct: PI3K Enzyme Activity Assay IC50 (nM); other: 10 μM ATP, 180 μM phosphatidyl inositol, 60 min
Protocol: PI3K activity was determined using a luminescence assay measuring ATP consumption as described previously (J.-A. Pinson, Z. Zheng, M. S. Miller, D. K. Chalmers, I. G. Jennings, P. E. Thompson, L-Aminoacyl-triazine derivatives are isoform-selective PI3Kβ inhibitors that target nonconserved Asp862 of PI3Kb, ACS Med. Chem. Lett. 4 (2013) 206-210). PI3K enzyme activity was determined in 25 μl of 20 mM HEPES pH 7.5, 5 mM MgCl2 with 180 μM phosphatidyl inositol and 10 μMATP. After a 60 min incubation at room temperature the reaction was stopped by the addition of Kinase-Glo (Promega) followed by a further 15 min incubation. Luminescence was then read using a Fluostar plate reader (BMGLabtech).
Inhibitors were diluted in 20% (v/v) DMSO at the indicated concentrations in order to generate a concentration versus inhibition of enzyme activity curve which was then analysed using GraphPad Prism version 8.00 for Windows, (GraphPad Software, San Diego California USA) in order to calculate the IC50. Standard deviations for the calculated IC50's are within 25% of the mean.

IC50 (PI3K) [nM]	SMILES	GI50 (OPM2 cells) [nM]
≤ 100	CC(=O)N1c2ccc(-c3ccc(CNC(=O)c4nc5c(N6CCOCC6)nc(-c6cnc(N)nc6)cn5c4C)cc3)cc2CC[C@@H]1C [Cpd 020, (S)-N-(4-(1-acetyl-2-methyl-1,2,3,4-tetrahydroquinolin-6-yl)benzyl)-6-(2-aminopyrimidin-5-yl)-3-methyl-8-morpholinoimidazo[1,2-a]pyrazine-2-carboxamide]	≤ 100
≤ 100	CC(=O)N1c2ccc(-c3ccc(C(=O)NCCNC(=O)c4nc5c(N6CCOCC6)nc(-c6cnc(N)nc6)cn5c4C)cc3)cc2CC[C@@H]1C [Cpd 021, (S)-N-(2-(4-(1-Acetyl-2-methyl-1,2,3,4-tetrahydroquinolin-6-yl)benzamido)ethyl)-6-(2-aminopyrimidin-5-yl)-3-methyl-8-morpholinoimidazo[1,2-a]pyrazine-2-carboxamide]	≤ 100
100 to 500	CC(=O)N1c2ccc(-c3ccc(C(=O)NCc4cc5nc(-c6cnc(N)nc6)nc(N6CCOCC6)c5s4)cc3)cc2CC[C@@H]1C [Cpd 026, (S)-4-(1-Acetyl-2-methyl-1,2,3,4-tetrahydroquinolin-6-yl)-N-((2-(2-aminopyrimidin-5-yl)-4-morpholinothieno[3,2-d]pyrimidin-6-yl)methyl)benzamide]	≤ 100
≤ 100	CC(=O)N1c2ccc(-c3ccc(CC(=O)NCc4cc5nc(-c6cnc(N)nc6)nc(N6CCOCC6)c5s4)cc3)cc2CC[C@@H]1C [Cpd 027, (S)-2-(4-(1-Acetyl-2-methyl-1,2,3,4-tetrahydroquinolin-6-yl)phenyl)-N-((2-(2-aminopy-rimidin-5-yl)-4-morpholinothieno[3,2-d]pyrimidin-6-yl)methyl)acetamide]	100 to 500
	CC(=O)N1c2ccc(-c3ccc(CNC(=O)c4cn5c(N6CCOCC6)nc(-c6cnc(N)nc6)cc5n4)cc3)cc2CC[C@@H]1C [Cpd 070, (S)-N-(4-(1-Acetyl-2-methyl-1,2,3,4-tetrahydroquinolin-6-yl)benzyl)-7-(2-aminopyrimidin-5-yl)-5-morpholinoimidazo[1,2-c]pyrimidine-2-carboxamide]	≤ 100
	CC(=O)N1c2ccc(-c3ccc(CNC(=O)c4nc5c(N6CCOCC6)nc(-c6cnc(N)nc6)nc5n4C)cc3)cc2CC[C@@H]1C [Cpd 071, (S)-N-(4-(1-Acetyl-2-methyl-1,2,3,4-tetrahydroquinolin-6-yl)benzyl)-2-(2-aminopyrimidin-5-yl)-9-methyl-6-morpholino-9H-purine-8-carboxamide]	≤ 100
	CC(=O)N1c2ccc(-c3ccc(CNC(=O)c4nc5c(N6CCOCC6)nc(-c6cnc(N)nc6)cn5n4)cc3)cc2CC[C@@H]1C [Cpd 072, (S)-N-(4-(1-Acetyl-2-methyl-1,2,3,4-tetrahydroquinolin-6-yl)benzyl)-6-(2-aminopyrimidin-5-yl)-8-morpholino-[1,2,4]triazolo[1,5-a]pyrazine-2-carboxamide]	≤ 100
	CC(=O)N1c2ccc(-c3ccc(CNC(=O)c4nc5c(N6CCOCC6)cc(-c6cnc(N)nc6)cn5n4)cc3)cc2CC[C@@H]1C [Cpd 073, (S)-N-(4-(1-Acetyl-2-methyl-1,2,3,4-tetrahydroquinolin-6-yl)benzyl)-6-(2-aminopyrimidin-5-yl)-8-morpholino-[1,2,4]triazolo[1,5-a]pyridine-2-carboxamide]	≤ 100
	CC(=O)N1c2ccc(-c3ccc(CNC(=O)c4cn5cc(-c6cnc(N)nc6)cc(N6CCOCC6)c5n4)cc3)cc2CC[C@@H]1C [Cpd 074, (S)-N-(4-(1-Acetyl-2-methyl-1,2,3,4-tetrahydroquinolin-6-yl)benzyl)-6-(2-aminopyrimidin-5-yl)-8-morpholinoimidazo[1,2-a]pyridine-2-carboxamide]	≤ 100
	CC(=O)N1c2ccc(-c3ccc(CNC(=O)c4cc5nc(-c6cnc(N)nc6)cc(N6CCOCC6)n5n4)cc3)cc2CC[C@@H]1C [Cpd 075, (S)-N-(4-(1-Acetyl-2-methyl-1,2,3,4-tetrahydroquinolin-6-yl)benzyl)-5-(2-aminopyrimidin-5-yl)-7-morpholinopyrazolo[1,5-a]pyrimidine-2-carboxamide]	≤ 100

Reference: patent US20230312577A1, “DUAL KINASE-BROMODOMAIN INHIBITORS” (MONASH UNIVERSITY, priority 2020, published 2023)
